Target: T1, Human P2X7 (hP2X7) receptor (Homo sapiens, UniProt Q99572)
T1 construct: myc-His (from the pcDNA3.1/myc-HisA vector); expressed in transfected cells
T1 sequence (Q99572 1-595): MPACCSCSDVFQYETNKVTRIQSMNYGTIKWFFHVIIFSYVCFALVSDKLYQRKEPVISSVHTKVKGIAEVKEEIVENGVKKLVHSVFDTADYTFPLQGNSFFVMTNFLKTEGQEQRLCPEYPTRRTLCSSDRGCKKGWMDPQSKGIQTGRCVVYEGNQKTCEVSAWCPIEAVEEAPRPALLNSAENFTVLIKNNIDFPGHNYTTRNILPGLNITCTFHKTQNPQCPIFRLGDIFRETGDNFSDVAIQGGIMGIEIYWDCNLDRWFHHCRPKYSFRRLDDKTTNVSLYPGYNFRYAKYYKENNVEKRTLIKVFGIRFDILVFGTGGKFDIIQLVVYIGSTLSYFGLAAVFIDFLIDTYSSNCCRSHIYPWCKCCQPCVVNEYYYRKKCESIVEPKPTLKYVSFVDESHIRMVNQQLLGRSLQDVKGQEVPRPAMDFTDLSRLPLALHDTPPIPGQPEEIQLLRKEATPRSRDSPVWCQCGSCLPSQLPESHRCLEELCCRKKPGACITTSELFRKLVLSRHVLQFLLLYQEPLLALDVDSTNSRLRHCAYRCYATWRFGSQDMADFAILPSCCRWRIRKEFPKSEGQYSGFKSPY
Assay: Dye assay: BzATP-induced Yo-Pro-1 uptake in HEK293 cells stably expressing hP2X7
Assay type: cell-based
Details: 90 min incubation
From the text: Human P2X7 (hP2×7) was cloned from a normal human brain total RNA library by reverse transcription (using SuperScript II (Invitrogen)) and PCR (using KOD-plus-(TOYOBO)). PCR primers were designed according to hP2X7 sequence registered in GENBANK with a putative amino acid sequence consisting of 595 amino acid residues. The PCR fragments were inserted into pcDNA3.1/myc-HisA vector (Invitrogen) and sequenced for confirmation.
HEK293 cells were transfected with hP2×7/pcDNA3.1/myc-HisA by lipofection, and 1 day later, the cells were treated with 1 mg/mL G418, and resistant cells were selected by appropriately dilution. The resistant cells were cloned by reseeding at a low density.
P2X7 receptor antagonists were screened by a dye uptake assay using HEK293 cells stably expressing hP2×7. Cells were plated on a type I collagen-coated black/clear bottom 96-well plate at 20000 cells/well and a day later, treated with varying concentrations of various test compounds for 30 minutes, then treated with a dye (Yo-Pro-1) (final concentration 2 μM) and BzATP (final concentration 0.1 mM) and incubated for 90 minutes. Then, the fluorescence (indicating the BzATP-induced Yo-Pro-1 uptake mediated by the P2X7 receptor) was measured with a microplate reader (excitation wavelength: 485 nm, emission wavelength: 535 nm). The % inhibition rates were calculated and plotted against the logarithms of the concentrations to determine IC50.

[1] = BzATP (0.1 mM)-induced Yo-Pro-1 uptake, compounds 30 min pre-treatment
[2] = BzATP 0.1 mM, Yo-Pro-1 2 μM, 30 min pre-treatment

Structure (SMILES)	IC50 [1] [nM]	IC50 [2] [nM]
CCC(NC(=O)Cn1ncc(N[C@@H]2C[C@@H]3C[C@H]([C@H]2C)C3(C)C)cc1=O)c1ccncc1 (stereo partly drawn) [compound 295]	230	–
Cc1noc(C)c1CNC(=O)Cn1ncc(N[C@@H]2C[C@@H]3C[C@H]([C@H]2C)C3(C)C)c(Br)c1=O [compound 212]	30	–
CCC(NC(=O)Cn1ncc(NC2C[C@@H]3CC([C@H]2C)C3(C)C)c(OC(F)F)c1=O)c1ccncc1 (stereo partly drawn) [Synthetic Example 382]	25	–
Cc1cncnc1CNC(=O)Cn1ncc(N[C@@H]2C[C@@H]3C[C@H]([C@H]2C)C3(C)C)c(Cl)c1=O [compound 281]	190	–
C[C@@H]1[C@H]2C[C@@H](C[C@H]1Nc1cnn(CC(=O)NCc3ccncc3)c(=O)c1C(=O)O)C2(C)C [Synthetic Example 406, 3-Oxo-2-{2-oxo-2-[(pyridin-4-ylmethyl)amino]ethyl}-5-{[(1R,2R,3R,5S)-2,6,6-trimethylbicyclo[3.1.1]hept-3-yl]amino}-2,3-dihydropyridazine-4-carboxylic Acid]	40	–
CC(NC(=O)Cn1ncc(N[C@@H]2C[C@@H]3C[C@@H](C3(C)C)[C@]2(C)O)c(Cl)c1=O)c1ccncc1Cl (stereo partly drawn) [compound 363]	2.8	–
CCC(NC(=O)Cn1ncc(NC2C[C@@H]3CC([C@H]2C)C3(C)C)c(OC)c1=O)c1ccncc1 (stereo partly drawn) [Synthetic Example 385]	39	–
Cc1cc(C(C)NC(=O)Cn2ncc(N[C@@H]3C[C@@H]4C[C@H]([C@H]3C)C4(C)C)c(Cl)c2=O)c(Cl)nn1 (stereo partly drawn) [compound 443]	–	5.6
C[C@@H]1[C@H]2C[C@@H](C[C@H]1Nc1cnn(CC(=O)NCc3ccnc(C#N)c3)c(=O)c1Br)C2(C)C [compound 219]	31	–
C[C@@H]1[C@H]2C[C@@H](C[C@H]1Nc1cnn(CC(=O)Nc3ccc(N(C)C)cc3)c(=O)c1Br)C2(C)C [compound 94]	64	–
CC1(C)[C@H]2CC[C@@H](CNc3cnn(CC(=O)NCc4ccncc4)c(=O)c3Br)[C@@H]1C2 [compound 54]	26	–
O=C(Cn1ncc(NC23CC4CC(CC(C4)C2)C3)c(Br)c1=O)NCc1ccncc1 [compound 51]	16	–
CCN(CC)c1ccc(C(Cn2ncc(N[C@@H]3C[C@@H]4C[C@H]([C@H]3C)C4(C)C)c(Br)c2=O)=NOC)cc1 [Synthetic Example 159, 4-Bromo-2-{2-[4-(diethylamino)phenyl]-2-(methoxyimino)ethyl}-5-[(1R,2R,3R,5S)-2,6,6-trimethylbicyclo[3.1.1]hept-3-ylamino]pyridazin-3(2H)-one]	77	–
CN(C)c1cnccc1CNC(=O)Cn1ncc(N[C@@H]2C[C@@H]3C[C@@H](C3(C)C)[C@]2(C)O)c(Cl)c1=O [compound 362]	3.1	–
C[C@@H]1[C@H]2C[C@@H](C[C@H]1Nc1cnn(CC(=O)NCc3ccnc(C#N)c3)c(=O)c1Cl)C2(C)C [compound 254]	27	–
C[C@@H]1[C@H]2C[C@@H](C[C@H]1Nc1cnn(CC(=O)NC(CCO)c3ccncc3)c(=O)c1Cl)C2(C)C (stereo partly drawn) [compound 253]	36	–
CC(NC(=O)Cn1ncc(NC2CCC[C@@H]3CCCC[C@H]23)c(Cl)c1=O)c1ccncc1 (stereo partly drawn) [compound 453]	–	16
C[C@@H]1[C@H]2C[C@@H](C[C@H]1Nc1cnn(CC(=O)NCC3CCNC=C3S(C)(=O)=O)c(=O)c1Cl)C2(C)C (stereo partly drawn) [compound 447]	–	42
CONC(=O)Cn1ncc(N[C@@H]2C[C@@H]3C[C@H]([C@H]2C)C3(C)C)c(Br)c1=O [compound 202]	140	–
C[C@@H]1[C@H]2C[C@@H](C[C@H]1Nc1cnn(CC(=O)NC[C@H]3CCCN3C(=O)OC(C)(C)C)c(=O)c1Br)C2(C)C [compound 201]	90	–
C[C@@H]1[C@H]2C[C@@H](C[C@H]1Nc1cnn(CC(=O)NCc3ccno3)c(=O)c1Br)C2(C)C [compound 127]	19	–
CC(NC(=O)Cn1ncc(NC2C3CCCC2CCC3)c(Cl)c1=O)c1ccnnc1 (stereo not drawn) [compound 376]	2.7	–
CC(NC(=O)Cn1ncc(NC23CC4CC(CC(C4)C2)C3)c(Cl)c1=O)c1ccnnc1 (stereo not drawn) [compound 367]	3	–
O=C(Cn1ncc(NC2CCCCCCCCC2)c(Br)c1=O)NCc1ccncc1 [compound 326]	160	–

Structure (SMILES)	IC50 [1] [nM]	IC50 [2] [nM]
C[C@@H]1[C@H]2C[C@@H](C[C@H]1Nc1cnn(CC(=O)NCc3ccncc3)c(=O)c1-c1ccncc1)C2(C)C [Synthetic Example 379, 2-[6-Oxo-5-(pyridin-4-yl)-4-{[(1R,2R,3R,5S)-2,6,6-trimethylbicyclo[3.1.1]hept-3-yl]amino}pyridazin-1(6H)-yl]-N-(pyridin-4-ylmethyl)acetamide]	240	–
COc1nnc(Cl)cc1C(C)NC(=O)Cn1ncc(N[C@@H]2C[C@@H]3C[C@H]([C@H]2C)C3(C)C)c(Cl)c1=O (stereo partly drawn) [compound 438]	–	1.7
CCC(NC(=O)Cn1ncc(NC23CC4CC(CC2C4)C3)c(Cl)c1=O)c1ccncc1 (stereo not drawn) [compound 337]	8.2	–
C[C@@H](NC(=O)Cn1ncc(NC2C3CCCC2CCC3)c(Cl)c1=O)c1ccncc1 (stereo partly drawn) [compound 369]	2.1	–
CC(NC(=O)Cn1ncc(NC2C3CCCC2CCC3)c(Br)c1=O)c1ccnnc1 (stereo not drawn) [compound 372]	3.2	–
C[C@@H]1[C@H]2C[C@@H](C[C@H]1Nc1cnn(Cc3ccccn3)c(=O)c1Br)C2(C)C [compound 87]	62	–
C[C@@H]1[C@H]2C[C@@H](C[C@H]1Nc1cnn(CC(=O)NCc3cscn3)c(=O)c1Br)C2(C)C [compound 106]	44	–
C[C@@H]1[C@H]2C[C@@H](C[C@H]1Nc1cnn(CC(=O)Nc3cccc([N+](=O)[O-])c3)c(=O)c1Br)C2(C)C [compound 79]	46	–
CC(NC(=O)Cn1ncc(N[C@@H]2C[C@@H]3C[C@H]([C@H]2C)C3(C)C)c(Cl)c1=O)c1ccnc(F)c1 (stereo partly drawn) [compound 265]	3.9	–
CN(C)c1cnccc1CNC(=O)Cn1ncc(NC23CC4CC(CC(C4)C2)C3)c(Cl)c1=O [compound 366]	2.6	–
C[C@@H]1[C@H]2C[C@@H](C[C@H]1NC(=O)Cn1ncc(N[C@@H]3C[C@@H]4C[C@H]([C@H]3C)C4(C)C)c(Br)c1=O)C2(C)C [compound 32]	63	–
C[C@@H]1[C@H]2C[C@@H](C[C@H]1Nc1cnn(CC(=O)NCc3ccncc3)c(=O)c1Cl)C2(C)C [compound 135]	4.2	–
C[C@@H]1[C@H]2C[C@@H](C[C@H]1Nc1cnn(CC(=O)NCc3ccncc3OCC#N)c(=O)c1Cl)C2(C)C [Synthetic Example 415]	39	–
O=C(Cn1ncc(NCC23CC4CC(CC(C4)C2)C3)c(Br)c1=O)NCc1ccncc1 [compound 60]	71	–
CCC(NC(=O)Cn1ncc(NC2CCCCCCC2)c(Br)c1=O)c1ccncc1 (stereo not drawn) [compound 355]	27	–
C[C@@H](NC(=O)Cn1ncc(NC2C3CC4CC(C3)CC2C4)c(Cl)c1=O)c1ccncc1 (stereo partly drawn) [compound 368]	2.6	–
CC(NC(=O)Cn1ncc(NC2CC3CC(C2C)C3(C)C)c(Br)c1=O)c1ccnnc1 (stereo not drawn) [compound 220]	4.2	–
C[C@@H]1[C@H]2C[C@@H](C[C@H]1Nc1cnn(CC(=O)NCc3ccncn3)c(=O)c1Br)C2(C)C [compound 103]	14	–
CN(C)c1cnccc1CNC(=O)Cn1ncc(NC2C3CCCC2CCC3)c(Cl)c1=O (stereo not drawn) [compound 373]	2.8	–
C[C@@H]1[C@H]2C[C@@H](C[C@H]1Nc1cnn(CC(=O)NCc3ccncc3)c(=O)c1C#N)C2(C)C [Synthetic Example 387, 2-[5-Cyano-6-oxo-4-{[(1R,2R,3R,5S)-2,6,6-trimethylbicyclo[3.1.1]hept-3-yl]amino}pyridazin-1(6H)-yl]-N-(pyridin-4-ylmethyl)acetamide]	37	–
C[C@@H]1[C@H]2C[C@@H](C[C@H]1Nc1cnn(C(F)C(=O)NCc3ccncc3)c(=O)c1Br)C2(C)C (stereo partly drawn) [Synthetic Example 405, [5-Bromo-6-oxo-4-{[(1R,2R,3R,5S)-2,6,6-trimethylbicyclo[3.1.1]hept-3-yl]amino}pyridazin-1(6H)-yl]-2-fluoro-N-(pyridin-4-ylmethyl)acetamide]	21	–
C[C@@H]1[C@H]2C[C@@H](C[C@H]1Nc1cnn(CC(=O)NCCc3ccccc3)c(=O)c1Br)C2(C)C [compound 6]	86	–
CC(NC(=O)Cn1ncc(NC2C3CCCC2CCC3)c(Cl)c1=O)c1ccncn1 (stereo not drawn) [compound 374]	6	–
CC1(C)[C@@H]2C[C@@H](Nc3cnn(CC(=O)NCc4ccncc4)c(=O)c3Br)[C@@](C)(O)[C@H]1C2 [compound 314]	34	–
